The results in this text go back to US20260234173A1, “STRUCTURED MOLECULAR VECTORS FOR ANTI-INFLAMMATORY COMPOUNDS AND USES THEREOF” (Universite Claude Bernard Lyon 1, priority 2019, published 2026).

One data set relates to NR8383 cells. The note with it: LPS 100 ng/mL; compound 10, 100, 500, 1,000 nM within <2 min after LPS; 5 hours. The method, then: NR8383 cells were seeded at 53,000 cells/cm^2 in T75 flasks, the medium consisted in Ham's F12K medium completed with 1% pen/strep, and 15% fetal bovine serum. When they reached confluence, they were treated with LPS (Sigma, ref 055: B55) at the concentration of 100 ng/mL, and, within less than 2 min after, with one of the following condition: DECA-EA-Pn at 10, 100, 500 or 1,000 nM, or EPA-EA-Pn at 10, 100, 500 or 1,000 ng/mL. Cells were harvested 5 hours later, and the level of IL-6 mRNA was measured by RT-qPCR as in B.2.1.4, with primers listed in table 1.

The subject of data set [1] is hippocampal LTP in rats subjected to Pilo-SE. Put plainly: Hippocampal LTP in slices from Pilo-SE rats treated in vivo (i.p. or per os). Also on record: species or system rat. How it is done:
(§1) In this experiment we used male Sprague-Dawley rats (ENVIGO, Netherlands). Pups were received at 14 day-old (postnatal day 14 (P14)) with their foster mother, and were maintained in groups of 10 in plastic cages (405 mm×255 mm×197 mm) with free access to food and water. All animal procedures are in accordance with the guidelines of the Animal Care and Use Committee of the University Claude Bernard Lyon 1.
(§2) All injected solutions were prepared in sterile saline (0.9% w/v). At weaning (postnatal day 20 (P20)), Sprague-Dawley male rat pups were first injected i.p. with lithium chloride (127 mg/Kg; Sigma-Aldrich), to decrease the dose of pilocarpine needed to trigger Status Epilepticus (SE). Scopolamine methylnitrate (1 mg/Kg; Sigma-Aldrich) was injected s.c. 18 h later, to alleviate peripheral cholinergic adverse side effects. Pilocarpine hydrochloride (25 mg/Kg; Sigma-Aldrich) was injected i.p. 30 min later, to induce SE. […] The rats were placed on a heated pad, under continuous observation, until they recovered from sedation. Following recovery, the rats were returned to the nursing mother until P23. Control rats only received saline injections. All rats were then housed in groups of 10 and weighed daily, during the 5 following days, to control for food intake, and then twice weekly until the end of experiment (three weeks post SE).
(§3) At P28-38, Sprague-Dawley rats were anesthetized with isoflurane, the forebrain was removed and placed in ice cold standard artificial cerebrospinal fluid (ACSF), consisting of (in mM): 124 NaCl, 5 KCl, 1.25 Na2HPO4, 2 MgSO4, 2 CaCl2), 26 NaHCO3, supplemented with 10 D-glucose, and bubbled with 95% O2 and 5% CO2. Hippocampal transverse slices were cut into 350 μm thick sections, using a vibratome (Leica VT1000S), and incubated in ACSF at room temperature for at least 1 h, before the transfer to the recording chamber. The ACSF used for perfusion was supplemented with picrotoxin (100 μM; Sigma-Aldrich), to block GABA-A receptors and therefore to facilitate the induction of NMDA receptors-dependent Long-Term Potentiation (LTP). CA1 pyramidal cells were visualized with a Zeiss Axioskop 2, equipped with a X40 objective, using infrared video microscopy and differential interference contrast optics. Whole-cell recordings from pyramidal neurons in the CA1 layer were obtained with patch electrodes, which were filled with a solution containing (in mM): 120 potassium gluconate, 20 KCl, 0.2 EGTA, 2 MgCl2, 10 HEPES, 4 Na2ATP, 0.3 Tris-GTP and 14 mM phosphocreatine (pH 7.3, adjusted with KOH). Drugs were applied in the bath of the hippocampal slices. Electrode resistances ranged from 3-5 MΩ. Series resistance was continually monitored, and experiments were discarded if it changed by >20%.
Capillary glass pipettes filled with ACSF and connected to an Iso-Flex stimulus isolation unit (A.M.P.I.) were placed in stratum radiatum, to evoke excitatory postsynaptic potentials (EPSPs) in CA1 pyramidal neurons. Cells were held at −70 mV to record EPSPs, and the stimulation strength was set to evoke EPSPs between 5-8 mV. LTP was induced by the theta burst pairing (TBP) protocol, which consisted of EPSPs paired with single back-propagating action potentials (b-APs), timed so that the b-AP (~15 ms delay) occurred at the peak of the EPSPs, as measured in the soma. A single burst contained five pairs delivered at 100 Hz and ten bursts were delivered at 5 Hz per sweep. Three sweeps were delivered at 10 s intervals for a total of 30 bursts (150 b-AP-EPSP pairs). The b-APs were elicited by direct somatic current injection (1 ms, 1-2 nA). This induction protocol was always applied within 20 min of achieving whole-cell configuration, to avoid “wash-out” of LTP.

Data set [2] in a line: Metabolic fate of SSL-X1 in the digestive tract of rats after per os administration. In kind it is in vivo. To be noted: 227 μg lipid phosphorus per os, sacrificed 5, 8 and 36 hours after administration.
For data set [3], the system named is SE-induced neuroinflammation (hippocampus and ventral limbic region). Put plainly: Neuroinflammatory response induced by status epilepticus in rats, per os SSL-X1. To be noted: 100 mg/Kg per os 1 h after onset of SE; hippocampus and ventral limbic region 24 h after SE; 21-day-old rats. The class given is in vivo, rat. An excerpt:
In these experiments, 21-day-old Sprague Dawley rats (ENVIGO, The NETHERLAND) were subjected to pilocarpine-induced status epilepticus (SE) as described below in details (§ B.3). Three groups of rats were constituted: (i) CTRL-NaCl, i.e. control rats that just received NaCl each time a treatment was given in the other groups of rats; (ii) SE-NaCl, i.e. rats that were subjected to SE and that received NaCl per os instead of SSL-X1; (iii) SE-SSL-X1, i.e. rats that were subjected to SE and that were administered with SSL-X1 vector (100 mg/Kg) per os 1 h after the onset of SE. The vectors were dissolved in 100 μL of NaCl. Due to their hydrophobic nature, the preparation was emulsified until complete dissolution of the lipid vector. Twenty-four hours later, rats were sacrificed using a lethal injection of pentobarbital (250 mg/Kg; i.p.) and brain tissues, i.e. the hippocampus (HI) and the ventral limbic region (VLR, which includes the amygdala, the piriform and the insular agranular cortices) were collected and processed as mentioned above (§ B.2.2). Analysis of the expression level of the key markers of neuroinflammation was performed by RT-qPCR as described above using the primer pairs shown in Table 1. […]

Data set [4] can be described thus: Hydrosolubility compared with synaptamide. The class given is physicochemical.
For data set [5], the system named is CA1 pyramidal neurons in hippocampal slices from rats subjected to Pilo-SE. Put plainly: Hippocampal LTP in slices from Pilo-SE rats, compound perfused in the bath (ex vivo). In kind it is cell-based, rat. To be noted: slices 1-2 weeks post Pilo-SE. How it is done: as §1, §2, §3
Capillary glass pipettes filled with ACSF and connected to an Iso-Flex stimulus isolation unit (A.M.P.I.) were placed in stratum radiatum, to evoke excitatory postsynaptic potentials (EPSPs) in CA1 pyramidal neurons. Cells were held at −70 mV to record EPSPs, and the stimulation strength was set to evoke EPSPs between 5-8 mV. LTP was induced by the theta burst pairing (TBP) protocol, which consisted of EPSPs paired with single back-propagating action potentials (b-APs), timed so that the b-AP (~15 ms delay) occurred at the peak of the EPSPs, as measured in the soma. A single burst contained five pairs delivered at 100 Hz and ten bursts were delivered at 5 Hz per sweep. Three sweeps were delivered at 10 s intervals for a total of 30 bursts (150 b-AP-EPSP pairs). […]

The subject of data set [6] is epileptic rats (post Pilo-SE). Kind of data set: Morris water maze (MWM) spatial learning in epileptic rats. In kind it is in vivo, rat. The note with it: epileptic rats injected during the first week post-SE, tested 5 weeks post-SE, versus saline. The method, then:
All injected solutions were prepared in sterile saline (0.9% w/v). At weaning (postnatal day 20 (P20)), Sprague-Dawley male rat pups were first injected i.p. with lithium chloride (127 mg/Kg; Sigma-Aldrich), to decrease the dose of pilocarpine needed to trigger Status Epilepticus (SE). Scopolamine methylnitrate (1 mg/Kg; Sigma-Aldrich) was injected s.c. 18 h later, to alleviate peripheral cholinergic adverse side effects. Pilocarpine hydrochloride (25 mg/Kg; Sigma-Aldrich) was injected i.p. 30 min later, to induce SE. After 30 min of continuous behavioral SE, diazepam (Valium®, Roche) was injected i.p. at 10 mg/Kg, to promote survival and initiate cessation of behavioral seizures, that completely stopped after a second s.c. injection of diazepam, given 90 min later at the dose of 5 mg/Kg. The rats were placed on a heated pad, under continuous observation, until they recovered from sedation. Following recovery, the rats were returned to the nursing mother until P23. Control rats only received saline injections. […]
Spatial learning ability was measured at 5 weeks post-SE by the Morris water maze (MWM). […]
The statistical analyses were performed using SigmaPlot software version 12. […] For MWM test, data were analyzed by two-way repeated measures ANOVA followed by Fisher LSD post hoc tests to compare differences between groups at several time points.

Data set [7] has as its system Pilo-SE-induced inflammation in the hippocampus. Put plainly: Resolution of inflammation in hippocampus following pilocarpine-induced status epilepticus (Pilo-SE). The class given is in vivo, rat. To be noted: 2 mg/kg i.p. after 2 h of SE; hippocampus 9 h post-SE; 42-day-old rats. How it is done: Male Sprague-Dawley rats (Envigo, The Netherlands) were subjected to Pilo-SE at 42 days of age (185 g). SE was triggered by pilocarpine hydrochlorate (350 mg/kg, i.p.), 30 min after the administration of scopolamine methylnitrate (1 mg/kg, s.c.), used to reduce peripheral side effects of pilocarpine. After 2 h of continuous SE, rats were administered with diazepam (10 mg/kg, i.p.) to stop SE, and then immediately treated with SYN (2 mg/kg, i.p.), SYN-Pn (2 mg/kg, i.p.) in 300 μL of NaCl. Non-treated rats subjected to Pilo-SE were injected with 300 μL of NaCl (i.p.) instead of SYN or SYN-Pn. All rats received a second administration of diazepam (5 mg/kg, s.c.), 1 h after the first one, and sacrificed 9 h post-SE. The brains were collected, the hippocampus microdissected on ice, the RNA extracted and RT-qPCR performed as described above using the primer pairs shown in Table 1. The time at which rats were sacrificed was chosen based on our preliminary experiments that allowed us to determine that the peak of brain inflammation was observed 7-12 hours after the onset of SE.

The subject of data set [8] is LPS-induced neuroinflammation (hippocampus and neocortex). Put plainly: LPS-induced neuroinflammation in vivo in rats (RT-qPCR, Neuroinflammation Index). Also on record: species or system rat. The note with it: 6 h post-LPS. On the technique in general: In qPCR the cycle at which signal appears reflects the starting amount.
Where [9] appears, read: 5 mg/kg i.p., 1 h after cessation of SE then daily.
[10] abbreviates: 2 mg/kg i.p., 1 h after cessation of SE then daily.

As for `CCCCCCCCCC(=O)O.NCCO.O=[PH](O)O` [DECA-EA-Pn, decanoic acid ethanolamine phosphonate], in the data set on NR8383 cells, the “induction of IL-6 mRNA levels” value is recorded as “significantly reduced”. In data set [1] (setting [9]), the “LTP magnitude (EPSP amplitude, % of baseline)” value is recorded as 130.3±7%.
On to `CC/C=C\C/C=C\C/C=C\C/C=C\C/C=C\C/C=C\CCC(=O)O` [DHA, docosahexaenoic acid, reference compound], for which, in [1] (per os, dose equivalent to 100 mg/kg of Synaptamide phosphonate), the “LTP magnitude (EPSP amplitude, % of baseline)” value came to 129.5±10.2%.
Regarding `CCC=CCC=CCC=CCC=CCC=CCC=CCCC(=O)NC(COP(=O)(O)CCN)C(O)C=CCCCCCCCCCCCCC` (stereo not shown) [SSL-X1], in data set [2], the “distribution of SSL-X1 along the intestinal tract” value was “able to reach the colon”. Further, the “induction of MCP1, IL6 and COX-2 transcripts after SE” value in data set [3] is listed as “partially prevented”.
Consider `CCC=CCC=CCC=CCC=CCC=CCC=CCCC(=O)NCCP(=O)(O)OCC(N)C(O)C=CCCCCCCCCCCCCC` (stereo not shown) [SSLX2], for which the “LTP magnitude (EPSP amplitude, % of baseline)” value in data set [1] (per os, dose equivalent to 10 mg/kg of Synaptamide phosphonate) came to 135.6±9.9%; in [1] (per os, dose equivalent to 30 mg/kg of Synaptamide phosphonate), 172.9±6.5%.
With `CC/C=C\C/C=C\C/C=C\C/C=C\C/C=C\C/C=C\CCC(=O)NCCOP(=O)(O)O` [synaptamide phosphate], in data set [4], the “hydrosolubility relative to synaptamide” value was “more hydrosoluble than synaptamide”. In addition, the “LTP magnitude (EPSP amplitude, % of baseline)” value in data set [5] (bath application 100 nM) is 144.5±9.39%; in data set [1] (setting [10]) it was 168.9±7.1%; in [1] (setting [9]), 162.3±10.8%.
Consider `CC/C=C\C/C=C\C/C=C\C/C=C\C/C=C\C/C=C\CCC(=O)NCCO` [synaptamide, N-Docosahexaenoylethanolamine, reference compound], for which the “LTP magnitude (EPSP amplitude, % of baseline)” value turned out to be 166.8±12.2% in data set [5] (bath application 100 nM); 164.2±20.5% in data set [5] (bath application 400 nM); 189.7±11.4% in [1] (setting [10]); 151.54±7.15% in [1] (setting [9]); 195.2±8% in data set [1] (10 mg/kg i.p., 1 h after cessation of SE then daily). In addition, the “spatial learning in MWM (latency to find the platform)” value in [6] was “significantly increased spatial learning acquisition”. Further, in data set [7], the “induction of IL1β mRNA in response to Pilo-SE” value was “reduced”. In addition, the “LPS-mediated induction of transcripts encoding neuroinflammatory markers” value in data set [8] (2 mg/Kg synaptamide equivalent i.p. one minute after LPS 1 mg/Kg, 21-day-old rats) is listed as “partially prevent”. For the same compound, the “reduction of the Neuroinflammatory Index measured both in the hippocampus and the neocortex” value in data set [8] (2 mg/Kg synaptamide equivalent i.p. one minute after LPS) was ~ 50%.
As for “eicosapentaenoic acid ethanolamine phosphonate [EPA-EA-Pn]”, the “induction of IL-6 mRNA levels” value in the data set with NR8383 cells is “significantly reduced”. The “LTP magnitude (EPSP amplitude, % of baseline)” value in [1] (setting [9]) was determined as 154.4±12.1%.
